Results published in US20030232986A1, “Inhibitors of caspases” (Vertex Pharmaceuticals Incorporated, priority 1998, published 2003).

Experiments:
[1] = target: T1, Caspase-1 (Homo sapiens, UniProt P29466); assay: Caspase-1 enzyme inhibition (Ki); type: biochemical; conditions: substrate Suc-YVAD-pNA 80 μM, 37° C., pH 7.5
T1 sequence (P29466 120-297 limits assumed): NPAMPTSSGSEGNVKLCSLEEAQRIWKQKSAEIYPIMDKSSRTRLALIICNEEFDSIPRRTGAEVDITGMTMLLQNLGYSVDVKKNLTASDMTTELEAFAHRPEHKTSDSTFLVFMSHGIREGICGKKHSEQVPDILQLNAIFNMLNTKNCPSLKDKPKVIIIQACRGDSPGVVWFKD
T1 sequence (P29466 317-404 limits assumed): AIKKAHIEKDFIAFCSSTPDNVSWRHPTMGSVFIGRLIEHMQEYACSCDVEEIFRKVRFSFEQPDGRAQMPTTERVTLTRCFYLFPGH
In short: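 Ki obtained by fitting rate versus inhibitor concentration to the Morrison tight-binding equation for competitive inhibitors, with pNA release read at 405 nm at 37 °C. Substrate Suc-YVAD-pNA (80 μM final) added after 15 min enzyme–inhibitor preincubation in Tris pH 7.5 buffer with DTT and CHAPS.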

[2] = system: Human whole blood, IL-1β production; assay: Whole blood assay for IL-1β production; type: cell-based; conditions: LPS-stimulated whole blood, IL-1β by ELISA
In short: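 LPS-stimulated (5.0 ng/ml final) human whole blood incubated with test compound in saline (or plasma/PBS-5% DMSO for hydrophobic compounds) at 30° C for 16-18 hr. Plasma IL-1β then measured by ELISA at 1:200 dilution, against no-LPS, no-inhibitor and vehicle controls.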

[3] = Single pass perfusion in rat: GI wall and liver metabolism, biliary excretion; type: in vitro ADME; conditions: for f (g) Xf (h): GI wall metabolism f(g) x liver metabolism f(h)
Experimental: Single pass perfusion studies in rat were performed to assess gastrointestinal (GI) wall metabolism (f(g)), liver metabolism (f(h)), and biliary excretion. The method used has been described in Pang, C. S., J. Pharmacol. Exp. Therapeutics, 333, pp. 788-798 (1984).

[4] = system: Human Peripheral Blood Mononuclear Cells (PBMC), mature IL-1β; assay: PBMC cell assay: IL-1β assay with human peripheral blood mononuclear cells; type: cell-based; conditions: LPS-stimulated human PBMC, mature IL-1β in supernatant by ELISA
In short: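 Donor PBMC (suspension at 6×10^6 cells/ml) or adherent-enriched monocytes were stimulated with 5 ng/ml LPS (final) alongside 5–6 compound dilutions bracketing the ICE Ki, at 0.1% DMSO final, for 16–18 hr at 37° C, 5% CO2. Mature IL-1β in supernatants was measured by ELISA; IC50 was calculated relative to LPS-only controls.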

[5] = target: T2, Caspase-3 (Homo sapiens, UniProt P42574); assay: Caspase-3 enzyme inhibition (Ki); type: biochemical; conditions: substrate Ac-DEVD-pNA 60 μM, 8% glycerol in buffer, 37° C.
T2 sequence (P42574 29-175 limits assumed): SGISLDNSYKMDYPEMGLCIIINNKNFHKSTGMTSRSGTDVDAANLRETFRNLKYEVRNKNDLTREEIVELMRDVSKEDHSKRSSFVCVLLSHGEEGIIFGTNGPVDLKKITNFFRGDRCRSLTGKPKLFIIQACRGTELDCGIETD
T2 sequence (P42574 176-277 limits assumed): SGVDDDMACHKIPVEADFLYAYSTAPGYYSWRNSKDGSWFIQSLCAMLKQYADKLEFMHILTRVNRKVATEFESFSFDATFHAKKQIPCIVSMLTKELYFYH
Experimental: Ki values for test compounds with the various caspases were obtained by the method of Margolin et al. (J. Biol. Chem., 272 pp. 7223-7228 (1997)). Assays were performed in 10 mM Tris (Sigma Corp, St Louis Mo.) pH 7.5, 1 mM Dithiothreitol (DTT, Research Organic INC, Cleveland, Ohio) and 0.1% CHAPS (Pierce, Rockford Ill.) at 37° C. For caspase-3, a solution of 8% glycerol was added to the assay buffer to improve enzyme stability. A 65 μL aliquot of the assay buffer and 5 μL aliquot of the appropriate dilutions of inhibitor in DMSO where pipetted into a 96 well plate, treated with 10 μL of caspase, then diluted in assay buffer (0.5-40 nM active protein by active site titration). A control containing DMSO but no compound was included for each determination. The plates were then incubated for 15 minutes at 37° C., before addition of the appropriate substrate (20 μL, final concentration 1-4×KM, final assay volume 100 μL) to initiate the reaction. Reaction rates were measured at 37° C. either by following the time dependant increase in absorbance at 405 nm (for the pNA substrates) or in fluorescence (Ex 390, Em 460) (for the AMC substrates). The rates obtained were plotted against inhibitor concentration and the data fit to the Morrison tight-binding equation for competitive inhibitors (Morrison, J. F., Biochem. Biophys. Acta, 185 pp. 269-286 (1969)). The substrates used for the individual assays were as follows:
Caspase-3 Ac-DEVD-pNA (Bachem, King of Prussia, Pa.) (final concentration in assay, 60 μM)

SMILES	Ki [1] [nM]	IC50 [2] [nM]	Biliary Excretion [3]	f (g) Xf (h) [3]	IC50 [4] [nM]	Ki [5] [nM]
COc1cc(N)c(Cl)cc1C(=O)N[C@@H](C)C(=O)N1CC(F)(F)C[C@H]1C(=O)N[C@H](C=O)CC(=O)O [Example 27b]	10 to 1000	< 2500	A (category “A” indicates <5%)	B (Category “B” indicates 0.25-0.49)		
CC(C)[C@H](NC(=O)c1nccc2ccccc12)C(=O)N[C@@H](C)C(=O)N[C@H](C=O)CC(=O)O [Example 29b]	< 10		B (Category “B” indicates 5-10%)	A (category “A” indicates <0.25)	1000 to 2000	> 1000
COc1ccc(C(=O)N[C@H](C(=O)N[C@@H](C)C(=O)N[C@H](C=O)CC(=O)O)C(C)C)cc1 [Example 29n]	10 to 1000	2500 to 7500	A (category “A” indicates <5%)	C (Category “C” indicates 0.5-0.75)		
COc1c(C)cc(C(=O)N[C@@H](C)C(=O)N[C@@H](C)C(=O)N[C@H](C=O)CC(=O)O)cc1C [Example 29o]	10 to 1000	< 2500	A (category “A” indicates <5%)	C (Category “C” indicates 0.5-0.75)		
COc1c(C)cc(C(=O)N[C@H](C(=O)N[C@@H](C)C(=O)N[C@H](C=O)CC(=O)O)C(C)C)cc1C [Example 29p]	< 10	< 2500	C (Category “C” indicates >10%)	B (Category “B” indicates 0.25-0.49)		
C[C@H](NC(=O)c1ccc(N)c(Cl)c1)C(=O)N[C@@H](C)C(=O)N[C@H](C=O)CC(=O)O [Example 29q]	< 10	< 2500	A (category “A” indicates <5%)	C (Category “C” indicates 0.5-0.75)		
CC(C)[C@H](NC(=O)c1ccc(N)c(Cl)c1)C(=O)N[C@@H](C)C(=O)N[C@H](C=O)CC(=O)O [Example 29r]	< 10	< 2500	B (Category “B” indicates 5-10%)	C (Category “C” indicates 0.5-0.75)		
CC(=O)NC(CC(=O)O)C(=O)NC1CCN(C(CC(C)C)C(=O)NC(C=O)CC(=O)O)C1=O (centres unmarked) [Example 32d]	> 1000					10 to 1000
COc1cc(NC(C)=O)c(Cl)cc1C(=O)N[C@@H](C)C(=O)N1CCC[C@H]1C(=O)N[C@H](C=O)CC(=O)O [Example 122r, 3-({1-[2-(4-Acetylamino-5-chloro-2-methoxy-benzoylamino)-propionyl]-pyrrolidine-2-carbonyl}-amino)-4-oxo-butyric acid]	10 to 1000	2500 to 7500	A (category “A” indicates <5%)	B (Category “B” indicates 0.25-0.49)		
